Key:
Ps. aeruginosa = assay: Anti-microbial screening, agar dilution, Ps. aeruginosa; format: cell-based, Pseudomonas aeruginosa; conditions: after 10, 20, 40 and 60 minutes at all dilutions 1:100, 1:200, 1:400, 1:800
Experimental: (§1) The antibacterial properties of the present compound were studied by the method of agar dilution. Test solutions of the compound were prepared in a concentration of 1% using dimethylformamide as a solvent then they are diluted in physiological solution to obtain the final experimental dilutions 1:100, 1:200, 1:400, and 1:800. The effect of these substances were compared with furacillin in a controllable study. The testing microbes used were gram positive bacteria St. Aereus, gram negative bacteria E. Coli, Ps. aeruginosa and Candida albicans fungi were taken. The experiments used for this survey were meat-pentonlu agar (EPA) for cultivation of bacteria and Saburo environment for fungi. Each experiment used 1 ml of test solution on each plate 500 min. Add 2 drops of emulsified with microbes feel. All experimental samples were taken from the agar after 10, 20, 40, and 60 minutes in the environment on the basis of Patrk planted. Bacteria were cultivated at a temperature of 37° C. for 1 day and the mushroom was kept in a thermostat for […] at a temperature of 28° C. Then results were checked.

E. Coli = assay: Anti-microbial screening, agar dilution, E. Coli; format: cell-based, Escherichia coli; conditions: after 10, 20, 40 and 60 minutes at all dilutions 1:100, 1:200, 1:400, 1:800
Experimental: as §1

Candida albicans = assay: Anti-microbial screening, agar dilution, Candida albicans; format: cell-based; conditions: after 10, 20, 40 and 60 minutes at all dilutions 1:100, 1:200, 1:400, 1:800
Experimental: as §1

St. Aereus = assay: Anti-microbial screening, agar dilution, St. Aereus; format: cell-based, Staphylococcus aureus; conditions: after 10, 20, 40 and 60 minutes at all dilutions 1:100, 1:200, 1:400, 1:800
Experimental: as §1

Q: What does the source list for `CC(O)Cn1c(-c2ccncc2O)nc(-c2ccccc2)c1-c1ccccc1` (centres unmarked) [4-(1-(2-Hydroxypropyl)-4,5-diphenyl-1H-imidazol-2-yl)pyridin-3-ol]?
A: inhibition activity (in words) (Ps. aeruginosa): highest inhibition activity; inhibition activity (in words) (E. Coli): highest inhibition activity; inhibition activity (in words) (Candida albicans): highest inhibition activity; melting point: 117 to 118 °C; inhibition activity (in words) (St. Aereus): highest inhibition activity

— patent US11970475B1, “4-(1-(2-Hydroxypropyl)-4,5-diphenyl-1H-imidazol-2-yl)pyridin-3-ol as an antimicrobial compound” (KING FAISAL UNIVERSITY, priority 2023, dated 2024)
